Data set [1] concerns MRSA (methicillin-resistant Staphylococcus aureus), ATCC 33592. Nature of the data set: Test Method B2 - Second Antimicrobial Efficacy Testing. Format: cell-based. The note with it: 4 minutes.
Description: A 0.22% wt/wt solution of CHG was prepared at a pH of 6. All pH adjustments were made using either gluconic acid or sodium hydroxide. Each of the above excipient solutions (5 mL) were mixed with an equal amount (5 mL) of CHG solution (0.22% wt/wt). The mixtures were allowed to stand for 15 minutes at ambient conditions, along with a control CHG solution. All of these samples were centrifuged at 14,000 g for 15 minutes. After centrifugation, supernatant was carefully transferred to a new vial and submitted for Antimicrobial Efficacy testing (TEST METHOD B2) and HPLC testing (TEST METHOD C2), see below.
For Test Method B2 the above Test Method B was followed, with the following changes: • 1. Bacteria was MRSA (methicillin-resistant Staphylococcus aureus), ATCC 33592, instead of P. aeruginosa. • 2. Inoculum level was approximately 6.2 logs, instead of 5.8 logs. • 3. Incubation time with MRSA was 4 minutes, instead of 2.5 minutes. • 4. Neutralizer was Neutralizing Buffer, instead of D/E Neutralizing Broth. • 5. Incubation of the Petrifilm plates was 38 hours, instead of 43 hours.
A short description of data set [2]: Evaluation of Precipitate Formation with CHG. It is filed as physicochemical. To be noted: 1:1 mixture of excipient solution with 3.72% CHG, visual within 30 minutes; for Precipitation at Low pH: low pH per sample. On the procedure:
It is thought that some excipients (inactives) may form a CHG complex, which is visible as a precipitate. Thus, CHG which complexes with an excipient, forming a precipitate would not be available for antimicrobial efficacy. The purpose of the precipitation formation testing was to observe the potential of an excipient to form a precipitates with CHG under the following test conditions.
Sample excipient solutions were prepared with distilled water to various concentrations of excipients according to Tables 12-16, below. The pH of the solutions was then adjusted to both a low pH and a high pH using either gluconic acid or NaOH. […] After combining the CHG solution with the excipient solution, the vial of the mixture was briefly swirled to mix. The mixtures were visually assessed for the presence/formation of a precipitate within 30 minutes. The results are shown in Tables P1-P5, where “Y” means precipitate was observed; “N” means no precipitate was observed; “*1” means the mixture could not be tested because a gel-like mass was formed when adding gluconic acid to reduce the pH down; and “*2” means the mixture could not be tested because it started to thicken when adding NaOH to raise the pH.

Structures are written as SMILES.

As for `N=C(NCCCCCCNC(=N)NC(=N)Nc1ccc(Cl)cc1)NC(=N)Nc1ccc(Cl)cc1.O=C(O)[C@H](O)[C@@H](O)[C@H](O)[C@H](O)CO.O=C(O)[C@H](O)[C@@H](O)[C@H](O)[C@H](O)CO` [CHG Control, 1,11-hexamethylene bis[5-(p-chlorophenyl)biguanide]di-D-gluconate, reference compound], the “Log Reduction of MRSA” value in data set [1] (CHG 0.22 wt % control, excipient 0.0 wt %) is 3.0. Turning to `O=C1NS(=O)(=O)c2ccccc21.[Na]` [P1, Sodium Saccharin], in data set [2], the “Precipitation at High pH” value is listed as “Y” and the “Precipitation at Low pH” value is “Y”.

Consider `C/C=C/C=C/C(=O)[O-].[K+]` [P4, Potassium Sorbate], for which, in data set [2], the “Precipitation at High pH” value is “Y”. `O=C([O-])c1ccccc1.[Na+]` [P7, Sodium Benzoate]: in data set [2], the “Precipitation at High pH” value is listed as “Y” and the “Precipitation at Low pH” value is given as “Y”. Turning to `[Cl-].[K+]` [P10, KCL], in data set [2], the “Precipitation at High pH” value is on record as “Y” and the “Precipitation at Low pH” value was “Y”. For `[Cl-].[K+]` [P11, KCL], in data set [2], the “Precipitation at High pH” value is listed as “Y” and the “Precipitation at Low pH” value was “Y”. `[Cl-].[K+]` [P12, KCL]: in data set [2], the “Precipitation at High pH” value is on record as “N” and the “Precipitation at Low pH” value was “N”. Consider `[Cl-].[Na+]` [P13, NaCl], for which, in data set [2], the “Precipitation at High pH” value was “Y” and the “Precipitation at Low pH” value was “Y”.

Regarding `O=P(O)(O)O` [P16, H3PO4], in data set [2], the “Precipitation at High pH” value is on record as “Y” and the “Precipitation at Low pH” value is given as “Y”.

On to `O=C(O)CC(O)(CC(=O)O)C(=O)O` [P19, Citric Acid], for which, in data set [2], the “Precipitation at High pH” value is given as “Y” and the “Precipitation at Low pH” value is listed as “Y”. For `O=C1[N-]S(=O)(=O)c2ccccc21.[Na+]` [Sodium Saccharin, Benzoic Sulphimide Sodium Salt], in data set [1] (supernatant of 0.50 wt % excipient solution mixed with equal amount of 0.22 wt % CHG), the “Log Reduction of MRSA” value was determined as 0.0.
